One experiment deals with T1, β2 (h) (Homo sapiens, UniProt P07550).
T1 construct: expressed in transfected cells; host or cells: Sf9 cells
Description: Receptor binding screen, [^3H](−)CGP 12177. The note with it: 10 uM Concentration of Compound I-1-Z; read-out: Mean Value, percent inhibition of control specific binding: β2 (h).

The next experiment deals with TNF-α (h). Description: Receptor binding screen, [^125I]TNF-α, U-937 cells. Also on record: species or system human. The settings on record: 10 uM Concentration of Compound I-1-Z.
Experiment [1] concerns LPS-induced lung inflammation. Description: LPS-induced pulmonary inflammation in rats. Type of experiment: in vivo, Sprague Dawley rats. The settings on record: FIG. 14. As for the experimental part:
LPS-induced pulmonary inflammation in rats is a widely used model of airway inflammation ([…] et al. (2002) J. Pharmacol. Exp. Ther. 302:127). For the experiment described here, groups of Sprague-Dawley female rats (180-200 g) were orally dosed with either a compound of the invention (1 or 10 mg/kg), or with vehicle 1 h before the LPS challenge. Animals were placed in a plexiglass chamber and LPS at 100 μg/ml was nebulized for ten minutes. The nebulizer was turned off for ten minutes, then the chamber was evacuated for a further ten minutes. The animals remained in the chamber throughout this 30 minute cycle. Animals were then returned to their cages for the remainder of the experiment. Four hours after exposure to LPS animals were sacrificed and lungs excised. Lungs were washed with three cycles of 3 ml RPMI 1640 medium and the lavage fluid combined. Cells were pelleted by centrifugation and washed in the same medium. Total cell counts were performed using a hemacytometer. Differential cell counts were conducted on Cytospin-prepared slides stained with Diff-Quick stain. Standard morphological criteria were used to define mononuclear and neutrophilic cells. Using the above protocol, an experiment to assess the effects of compound I-1-Z was carried out. Groups of four female Sprague Dawley rats were orally administered PBS, compound I-1-Z at the indicated doses, or dexamethasone at 3 mg/kg. […]

Experiment [2] has as its system antibody-mediated collagen-induced arthritis. Description: Anti-collagen antibody-induced arthritis in mice. The note with it: 30 mg/kg, i.p., once daily, days 1-10; FIG. 4. Type of experiment: in vivo. From the text:
Collagen-induced arthritis (CIA) in mice is widely used as an experimental model for rheumatoid arthritis (RA) in humans. CIA is mediated by autoantibodies to a particular region of type II collagen and complement. The murine CIA model used in this study is called antibody-mediated CIA, and can be induced by i.v. injection of a combination of different anti-type II collagen monoclonal antibodies (Terato K., et al. (1995). Autoimmunity. 22:137). Several compounds have been used to successfully block inflammation in this model, including anti-α1β1 and […] integrins monoclonal antibodies (de Fougerolles A. R. (2000) J. Clin. Invest. 105: 721).
In this example, arthrogen-collagen-induced arthritis antibody kits were purchased from Chemicon International (Temecula, Calif.) and arthritis was induced using the manufacturer's protocol. Mice were injected i.v. with a cocktail of 4 anti-collagen Type II monoclonal antibodies (1.5 mg each) on day 0, followed by i.p. injection of 25 μg lipopolysaccharide (LPS) on day 2. […] Severity of arthritis in each limb was scored for 3-4 weeks as follows: 0=normal; 1=mild redness, slight swelling of ankle or wrist; 2=moderate redness and swelling of ankle or wrist; 3=severe redness and swelling of some digits, ankle and paw; 4=maximally inflamed limb, with a maximum score of 16 per animal. […]

Experiment [3] addresses T2, μ (h) (MOP) (agonist site) (Homo sapiens, UniProt P35372).
T2 construct: expressed in transfected cells; host or cells: HEK-293 cells
Description: Receptor binding screen, [^3H]DAMGO. The settings on record: 10 uM Concentration of Compound I-1-Z; read-out: Mean Value, percent inhibition of control specific binding: μ (h) (MOP) (agonist site). As for the experimental part:
(§1) For Table 4 below, the specific ligand binding to the receptors is defined as the difference between the total binding and the nonspecific binding determined in the presence of an excess of unlabelled ligand. The results are expressed as a percent inhibition of control specific binding obtained in the presence of Compound I-1-Z. The IC50 values (concentration causing a half-maximal inhibition of control specific binding) and Hill coefficients (nH) were determined by non-linear regression analysis of the competition curves using Hill equation curve fitting. The inhibition constants (Ki) were calculated from the Cheng Prusoff equation (Ki=IC50/(1+(L/KD)), where L=concentration of radioligand in the assay, and KD=affinity of the radioligand for the receptor). In each experiment, the respective reference compound was tested concurrently with Compound I-1-Z in order to assess the assay suitability.

The target of another experiment is T3, δ2 (h) (DOP) (Homo sapiens, UniProt P41143).
T3 construct: expressed in transfected cells; host or cells: CHO cells
Description: Receptor binding screen, [^3H]DADLE. The note with it: 10 uM Concentration of Compound I-1-Z; read-out: Mean Value, percent inhibition of control specific binding: δ2 (h) (DOP). The method, then: as §1

T3 sequence (P41143 whole entry): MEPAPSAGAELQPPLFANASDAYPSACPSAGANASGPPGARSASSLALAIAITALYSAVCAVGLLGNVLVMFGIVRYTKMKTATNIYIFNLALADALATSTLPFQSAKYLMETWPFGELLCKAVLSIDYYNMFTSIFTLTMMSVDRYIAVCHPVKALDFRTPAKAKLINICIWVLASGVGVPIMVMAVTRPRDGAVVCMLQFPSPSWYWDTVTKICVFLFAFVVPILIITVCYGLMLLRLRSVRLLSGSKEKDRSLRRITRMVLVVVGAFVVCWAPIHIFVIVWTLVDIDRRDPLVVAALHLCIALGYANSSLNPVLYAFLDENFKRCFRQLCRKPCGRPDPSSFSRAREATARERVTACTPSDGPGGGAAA
T2 sequence (P35372 whole entry): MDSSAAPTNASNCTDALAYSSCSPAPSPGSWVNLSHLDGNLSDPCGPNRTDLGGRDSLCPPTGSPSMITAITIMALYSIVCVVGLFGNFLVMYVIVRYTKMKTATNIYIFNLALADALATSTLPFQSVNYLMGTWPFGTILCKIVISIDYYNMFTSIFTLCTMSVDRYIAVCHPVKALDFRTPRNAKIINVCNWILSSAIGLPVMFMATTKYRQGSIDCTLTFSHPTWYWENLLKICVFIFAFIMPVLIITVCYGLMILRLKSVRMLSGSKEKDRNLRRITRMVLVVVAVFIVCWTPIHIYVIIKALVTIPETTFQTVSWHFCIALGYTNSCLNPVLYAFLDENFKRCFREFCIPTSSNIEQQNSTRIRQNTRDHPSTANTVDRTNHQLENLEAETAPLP
T1 sequence (P07550 whole entry): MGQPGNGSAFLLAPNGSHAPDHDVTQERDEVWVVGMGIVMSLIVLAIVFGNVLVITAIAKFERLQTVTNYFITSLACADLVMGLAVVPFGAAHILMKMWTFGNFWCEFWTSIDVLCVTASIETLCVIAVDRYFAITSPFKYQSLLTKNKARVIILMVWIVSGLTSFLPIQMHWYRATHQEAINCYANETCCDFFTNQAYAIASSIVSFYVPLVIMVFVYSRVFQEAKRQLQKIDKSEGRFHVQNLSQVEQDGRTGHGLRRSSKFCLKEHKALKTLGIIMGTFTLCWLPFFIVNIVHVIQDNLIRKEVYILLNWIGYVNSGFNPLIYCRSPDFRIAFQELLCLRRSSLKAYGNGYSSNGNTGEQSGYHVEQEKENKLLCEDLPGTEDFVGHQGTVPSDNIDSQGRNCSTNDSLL

The inhibition is the share of the control response that was lost under treatment. Consider `COc1ccc(C/C(=C/F)CN)cc1.Cl` [Compound I-1-Z, (Z)-3-Fluoro-2-(4-methoxybenzyl)-allylamine hydrochloride], for which the inhibition at 10 µM at β2 (h) was 6%; in experiment [3], 14%; on δ2 (h) (DOP), 0%. Moreover, in the experiment on TNF-α (h), the “Mean Value, percent inhibition of control specific binding: TNF-α (h)” value is −6%. The LPS-induced lung inflammation result in experiment [1] (1 mg/kg orally before nebulized LPS) and in experiment [1] (10 mg/kg orally before nebulized LPS) was “effective in reducing LPS-induced lung inflammation” throughout. Also, the “final arthritis score and paw swelling” value in experiment [2] is on record as “clearly reduced”.
